The test system of this test is Patients with LHON. The experiment in a line: Example 2: 12-month double blind, placebo controlled study of acetyl L-carnitine, visual acuity. It counts as in vivo, human. Particulars: for Visual Acuity Change, Diff / Visual Acuity Recovery, Diff: ALC 2 g/day orally vs placebo. The text has this: 30 Patients with LHON were enrolled. To be eligible, participants were required to meet the following inclusion criteria: both sexes, age ≧20 years and ≦60 years, diagnosis of Leber's optic neuropathy assessed by the presence of at least one of the three most common LHON pathogenic mutations (11778/ND4, 3460/ND1, 14484/ND6), and duration of disease greater than 2 years.
The study treatment trial was 12-month, double blind, placebo controlled with participants randomized to receive acetyl L-carnitine (2 g/day orally) or placebo.
The primary efficacy end point for the study was the best recovery in visual acuity in either eye measured by change in logMAR (logarithm of Minimal Angle of Resolution) in study eyes comparing the acetyl-L-carnitine treatment group with the placebo treatment control group 6 and 12 months after enrolment. Secondary efficacy outcome was the patients' best visual acuity at 6 and 12 months compared to best visual acuity at baseline.

Turning to `CC(=O)O[C@H](CC(=O)[O-])C[N+](C)(C)C` [ALC, acetyl-L-carnitine], the “Visual Acuity Change, Diff” value is “Diff = 14 letters” (T6 (6 months), p < 0.05) and “Diff = 18 letters” (T12 (12 months), p < 0.01). Besides, the “Visual Acuity Recovery, Diff” value is given as “Diff = 10 letters” (T6 (6 months), p < 0.05) and “Diff = 12 letters” (T12 (12 months), p < 0.01). Also, the “improvement of visual acuity recovery (in words)” value (vs placebo, after 6 months (T6) and 12 months (T12)) was “significant difference in improvement”. Moreover, the “visual acuity of eyes (in words)” value (vs placebo, both time points T6 and T12) is on record as “significantly improved”.
